Reference: ChEMBL document CHEMBL5512605, “Targeted regulated cell death with small molecule compounds in colorectal cancer: Current perspectives of targeted therapy and molecular mechanisms” (Eur J Med Chem, 2024)

Columns and labels:
[1] = test system: RKO; experiment: Cytotoxicity against human RKO cells assessed as inhibition of cell proliferation measured after 48 hrs by MTT assay; type: functional, cell-based
[2] = test system: SW480; experiment: Cytotoxicity against human SW480 cells assessed as inhibition of cell proliferation measured after 48 hrs by MTT assay; type: functional, cell-based
[3] = test system: HCT-116; experiment: Cytotoxicity against human HCT-116 cells assessed as inhibition of cell proliferation measured after 48 hrs by MTT assay; type: functional, cell-based; conditions: HCT-116, 48 h
[4] = test system: HCT-116; experiment: Antiproliferative activity against human HCT-116 cells assessed as inhibition of cell growth measured upto 72 hrs by CCK-8 method; type: functional, cell-based; conditions: HCT-116, 72 h
[5] = test system: LoVo; experiment: Antiproliferative activity against human LoVo cells measured after 48 hrs by MTT assay; type: functional, cell-based
[6] = test system: HCT-8; experiment: Antiproliferative activity against human HCT-8 cells measured after 48 hrs by MTT assay; type: functional, cell-based; conditions: HCT-8, 48 h
[7] = test system: HCT-116; experiment: Antiproliferative activity against human HCT-116 cells measured after 48 hrs by MTT assay; type: functional, cell-based; conditions: HCT-116, 48 h
[8] = test system: HCT-116; experiment: Antiproliferative activity against human HCT-116 cells assessed as inhibition of cell growth; type: functional, cell-based
[9] = test system: SW-620; experiment: Antiproliferative activity against human SW620 cells assessed as inhibition of cell growth; type: functional, cell-based
[10] = test system: SW-620; experiment: Cytotoxicity against human SW620 cells assessed as inhibition of cell proliferation measured after 48 hrs by MTT assay; type: functional, cell-based; conditions: SW-620, 48 h
[11] = test system: SW837; experiment: Antiproliferative activity against human SW837 cells; type: functional
[12] = test system: HCT-116; experiment: Antiproliferative activity against human HCT-116 cells assessed as inhibition of cell viability measured after 24 hrs by CCK-8 method; type: functional, cell-based; conditions: HCT-116, 24 h
[13] = test system: HT-29; experiment: Antiproliferative activity against human HT-29 cells assessed as inhibition of cell viability measured after 24 hrs by CCK-8 method; type: functional, cell-based; conditions: HT-29, 24 h
[14] = test system: HCT-116; experiment: Antiproliferative activity against human HCT-116 cells; type: functional, cell-based; conditions: Homo sapiens, HCT-116
[15] = test system: SW480; experiment: Antiproliferative activity against human SW480 cells; type: functional, cell-based; conditions: Homo sapiens, SW480
[16] = test system: HCT-116; experiment: Antiproliferative activity against human HCT-116 cells measured after 72 hrs by SRB method; type: functional, cell-based; conditions: HCT-116, 72 h
[17] = test system: HT-29; experiment: Antiproliferative activity against human HT-29 cells measured after 72 hrs by SRB method; type: functional, cell-based; conditions: HT-29, 72 h
[18] = test system: HCT-116; experiment: Cytotoxicity against human HCT-116 cells measured after 48 hrs by MTT colorimetric assay; type: functional, cell-based; conditions: HCT-116, 48 h
[19] = test system: HT-29; experiment: Antiproliferative activity against human HT-29 cells assessed as inhibition of cell viability incubated for 24 hrs by CCK-8 method; type: functional, cell-based; conditions: HT-29, 24 h
[20] = test system: SW480; experiment: Antiproliferative activity against human SW480 cells assessed as inhibition of cell growth incubated for 24 hrs by CCK-8 method; type: functional, cell-based; conditions: SW480, 24 h
[21] = test system: COLO 320; experiment: Antiproliferative activity in human COLO 320 cells incubated for 24 hrs by MTT assay; type: functional
[22] = test system: Caco-2; experiment: Antiproliferative activity against human Caco-2 cells measured after 24 hrs by MTT assay; type: functional, cell-based; conditions: Caco-2, 24 h
[23] = test system: SW-620; experiment: Antiproliferative activity against human SW620 cells; type: functional, cell-based
[24] = test system: HCT-116; experiment: Cytotoxicity against human HCT-116 cells assessed as inhibition of cell proliferation measured after 72 hrs by SRB method; type: functional, cell-based
[25] = test system: DLD-1; experiment: Antiproliferative activity against human DLD-1 cells assessed as inhibition of cell viability by CCK-8 method; type: functional, cell-based
[26] = test system: HCT-116; experiment: Antiproliferative activity against human HCT-116 cells assessed as inhibition of cell viability by CCK-8 method; type: functional, cell-based
[27] = test system: SW480; experiment: Antiproliferative activity against human SW480 cells incubated for 24 hrs by CCK-8 method; type: functional, cell-based
[28] = test system: SW 1116; experiment: Antiproliferative activity against human SW 1116 cells incubated for 24 hrs by CCK-8 method; type: functional, cell-based

Compound C[C@@H]1CC[C@@]2(OC1)O[C@H]1C[C@H]3[C@@H]4CC=C5C[C@H](O[C@@H]6O[C@H](CO)[C@@H](O)[C@H](O[C@@H]7O[C@H](CO)[C@@H](O)[C@H](O)[C@H]7O)[C@H]6O[C@@H]6O[C@@H](C)[C@H](O)[C@@H](O)[C@H]6O)CC[C@]5(C)[C@H]4CC[C@]3(C)[C@H]1[C@@H]2C has an IC50 [1] of 3.12 µM, an IC50 ([2]; Homo sapiens, SW480, 48 h) of 2.67 µM and an IC50 [3] of 5.47 µM.
Compound CC(=O)Oc1ccccc1C(=O)O [ASPIRIN] has an IC50 [4] of 8000 µM.
With CO[C@H]1C(=O)[C@]2(C)[C@@H](OC)C[C@H]3OC[C@@]3(OC(C)=O)[C@H]2[C@H](OC(=O)c2ccccc2)[C@]2(O)C[C@H](OC(=O)[C@H](O)[C@@H](NC(=O)OC(C)(C)C)c3ccccc3)C(C)=C1C2(C)C [CABAZITAXEL] the IC50 [5] was 0.063 µM, the IC50 [6] was 0.532 µM and the IC50 [7] was 0.029 µM.
CC1=C(O)C(=O)C=C2C1=CC=C1[C@@]2(C)CC[C@@]2(C)[C@@H]3C[C@](C)(C(=O)O)CC[C@]3(C)CC[C@]12C [CELASTROL] gave an IC50 [8] of 0.29 µM and an IC50 [9] of 0.29 µM.
CC(=O)O[C@H]1[C@H]2O[C@]23[C@@H]2CC[C@@H]4C[C@@H](O)CC[C@]4(C)[C@H]2CC[C@]3(C)[C@H]1c1ccc(=O)oc1 [CINOBUFAGIN] was tested, and the IC50 [10] was 0.364 µM, the IC50 [1] was 0.182 µM and the IC50 [3] was 0.782 µM.
In the case of Cc1ncsc1-c1ccc([C@H](C)NC(=O)[C@@H]2C[C@@H](O)CN2C(=O)[C@@H](NC(=O)CCCCCC(=O)N2CCN(CC[C@H](CSc3ccccc3)Nc3ccc(S(=O)(=O)NC(=O)c4ccc(N5CCN(CC6=C(c7ccc(Cl)cc7)CCC(C)(C)C6)CC5)cc4)cc3S(=O)(=O)C(F)(F)F)CC2)C(C)(C)C)cc1 [DT-2216], the IC [11] is reported as 1 µM.
O=c1cc(-c2ccc(O)cc2)oc2cc(O)c([C@@H]3O[C@H](CO)[C@@H](O)[C@H](O)[C@H]3O)c(O)c12 [ISOVITEXIN] showed an IC50 [12] of 29.8 µM and an IC50 [13] of 37.2 µM.
Compound COc1ccc(-c2cc(=O)c3c(O)c(OC)c(O)c(OC)c3o2)cc1 [NEVADENSIN] has an IC50 [14] of 5 µM and an IC50 [15] of 5 µM.
In the case of O=C(Nc1ccc([N+](=O)[O-])cc1Cl)c1cc(Cl)ccc1O [NICLOSAMIDE], the IC50 [16] is reported as 0.32 µM and the IC50 [17] is reported as 4.66 µM.
In the case of CC(=O)Oc1ccccc1C(=O)Nc1ncc([N+](=O)[O-])s1 [NITAZOXANIDE], the IC50 [18] is reported as 11.2 µM.
In the case of CC(CN1c2ccccc2Sc2ccccc21)N(C)C (configuration not stated) [PROMETHAZINE], the IC50 [19] is reported as 27.3 µM and the IC50 [20] is reported as 33 µM.
In the case of CC(C)c1cccc(C(C)C)c1O [PROPOFOL], the IC ([2]; time 48 hrs) is reported as 12.5 µM.
O=c1c(O)c(-c2ccc(O)c(O)c2)oc2cc(O)cc(O)c12 [QUERCETIN] showed an IC [21] of 50 µM.
For CC[C@@H](C(=O)[C@@H](C)[C@@H](O)[C@H](C)[C@@H]1O[C@@H]([C@@H](CC)C(=O)O)CC[C@@H]1C)[C@H]1O[C@]2(C=C[C@@H](O)[C@]3(CC[C@@](C)([C@H]4CC[C@](O)(CC)[C@H](C)O4)O3)O2)[C@H](C)C[C@@H]1C [SALINOMYCIN], the IC50 [22] was 15.7 µM.
In the case of C[S+]([O-])CCCCN=C=S (configuration not stated) [SULFORAPHANE], the IC50 [22] is reported as 55.3 µM.
For CC(/C=C/C(=O)NO)=C\[C@@H](C)C(=O)c1ccc(N(C)C)cc1 [TRICHOSTATIN], the IC50 [23] was 2.45 µM.
C/C=C\C(=O)O[C@@H]1C[C@H]2O[C@@H]3C=C(C)C(=O)C[C@]3(C)[C@]1(C)[C@]21CO1 [TRICHOTHECIN] showed an IC50 [24] of 0.25 µM.
CETUXIMAB gave an IC [25] of 100 µM and an IC [26] of 100 µM.
For IVERMECTIN, the IC50 [27] was 15.3 µM and the IC50 [28] was 6.27 µM.
